Test results from PubChem BioAssay AID330 (DTP/NCI, 2004).
Toxic doses and inconclusive results are not listed. How the source made its calls: active means survival T/C of 150% or more; inactive means T/C below 125% in these data.

Test system: P388 leukemia ip, CD2F1 mice, survival T/C
Test: NCI In Vivo Anticancer Drug Screen. Data for tumor model P388 Leukemia (intraperitoneal) in CD2F1 (CDF1) mice
Settings: endpoint: median survival time, higher = longer survival
Method in brief: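 Mice carrying the transplanted tumor received test compound or vehicle. Survival was recorded in each group, and the value is the treated-group measurement divided by that of the vehicle-treated control group.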

[1] = dose: 15.0 mg/kg/injection, schedule: Q01DX005 (ip), vehicle: Klucel (hydroxypropylcellulose) (HPC)
[2] = dose: 30.0 mg/kg/injection, schedule: Q01DX005 (ip), vehicle: Klucel (hydroxypropylcellulose) (HPC)
[3] = dose: 25.0 mg/kg/injection, schedule: Q01DX009 (ip), vehicle: saline with Tween-80
[4] = dose: 50.0 mg/kg/injection, schedule: Q01DX009 (ip), vehicle: saline with Tween-80
[5] = dose: 100.0 mg/kg/injection, schedule: Q01DX009 (ip), vehicle: saline with Tween-80
[6] = dose: 200.0 mg/kg/injection, schedule: Q01DX009 (ip), vehicle: saline with Tween-80
[7] = dose: 50.0 mg/kg/injection, schedule: Q01DX005 (ip), vehicle: Klucel (hydroxypropylcellulose) (HPC)
[8] = dose: 100.0 mg/kg/injection, schedule: Q01DX005 (ip), vehicle: Klucel (hydroxypropylcellulose) (HPC)
[9] = dose: 200.0 mg/kg/injection, schedule: Q01DX005 (ip), vehicle: Klucel (hydroxypropylcellulose) (HPC)
[10] = dose: 60.0 mg/kg/injection, schedule: Q01DX005 (ip), vehicle: Klucel (hydroxypropylcellulose) (HPC)
[11] = dose: 120.0 mg/kg/injection, schedule: Q01DX005 (ip), vehicle: Klucel (hydroxypropylcellulose) (HPC)
[12] = dose: 60.0 mg/kg/injection, schedule: Q01DX005 (ip), vehicle: saline with Tween-80
[13] = dose: 120.0 mg/kg/injection, schedule: Q01DX005 (ip), vehicle: saline with Tween-80

Measured: T/C

COCOCC(N)CS(C)=O (centres undefined)
inactive: dose: 50.0 mg/kg/injection, schedule: Q01DX005 (ip), vehicle: water 105 % of control | dose: 100.0 mg/kg/injection, schedule: Q01DX005 (ip), vehicle: water 97 % of control | dose: 200.0 mg/kg/injection, schedule: Q01DX005 (ip), vehicle: water 102 % of control

Cc1ccc(C)n1-c1ccsc1C(=O)NNC(=O)C(Cl)Cl
inactive: dose: 7.5 mg/kg/injection, schedule: Q01DX005 (ip), vehicle: Klucel (hydroxypropylcellulose) (HPC) 100 % of control | [1] 106 % of control | [2] 99 % of control

CC(=O)c1ccc(NC(O)C(Cl)(Cl)Cl)cc1 (centres undefined)
inactive: [3] 99 % of control | [4] 96 % of control | [5] 103 % of control | [6] 107 % of control

Cc1nc2scc(-c3ccccc3)n2c(=O)c1CN1CCCCC1
inactive: dose: 37.5 mg/kg/injection, schedule: Q04DX002 (ip), vehicle: Klucel (hydroxypropylcellulose) (HPC) 103 % of control | dose: 75.0 mg/kg/injection, schedule: Q04DX002 (ip), vehicle: Klucel (hydroxypropylcellulose) (HPC) 106 % of control | dose: 150.0 mg/kg/injection, schedule: Q04DX002 (ip), vehicle: Klucel (hydroxypropylcellulose) (HPC) 95 % of control

CCOC(=O)C(C(C)N1CCOCC1)N1CCOCC1 (centres undefined)
inactive: [7] 110 % of control | [8] 100 % of control | [9] 101 % of control

CCOC(=O)CSc1ccc(C)cc1
inactive: dose: 25.0 mg/kg/injection, schedule: Q01DX009 (ip), vehicle: saline 105 % of control | dose: 50.0 mg/kg/injection, schedule: Q01DX009 (ip), vehicle: saline 89 % of control | dose: 100.0 mg/kg/injection, schedule: Q01DX009 (ip), vehicle: saline 96 % of control | dose: 200.0 mg/kg/injection, schedule: Q01DX009 (ip), vehicle: saline 99 % of control

CC1(C)COC2(C)N(c3ccccc3)C(=O)ON12 (centres undefined)
inactive: [7] 100 % of control | [8] 100 % of control | [9] 97 % of control

CN(C)Cc1c(O)c2ccc(N(C)C)cc2[nH]c1=O
inactive: [10] 92 % of control | [11] 90 % of control | dose: 240.0 mg/kg/injection, schedule: Q01DX005 (ip), vehicle: Klucel (hydroxypropylcellulose) (HPC) 96 % of control

CCCCCCCCCCSc1ncnc2nc[nH]c12
inactive: dose: 12.5 mg/kg/injection, schedule: Q01DX009 (ip), vehicle: saline with Tween-80 100 % of control | [3] 90 % of control | [4] 90 % of control

CCOC(=O)C(C(=O)OCC)C1(O)C2CCCC21 (centres undefined)
inactive: dose: 100.0 mg/kg/injection, schedule: Q04DX002 (ip), vehicle: saline with Tween-80 101 % of control | dose: 200.0 mg/kg/injection, schedule: Q04DX002 (ip), vehicle: saline with Tween-80 101 % of control | dose: 400.0 mg/kg/injection, schedule: Q04DX002 (ip), vehicle: saline with Tween-80 104 % of control

COc1ccc(OC)c(NC(=S)NC(=O)c2cccc(Br)c2)c1
inactive: [12] 95 % of control | [13] 92 % of control | dose: 240.0 mg/kg/injection, schedule: Q01DX005 (ip), vehicle: saline with Tween-80 89 % of control

CC(=O)Oc1cccnc1C(C#N)C#N
inactive: dose: 12.5 mg/kg/injection, schedule: Q01DX005 (ip), vehicle: saline with Tween-80 108 % of control | dose: 25.0 mg/kg/injection, schedule: Q01DX005 (ip), vehicle: saline with Tween-80 94 % of control

[I][Pt+2][I].[NH-]CC[NH-]
inactive: dose: 2.75 mg/kg/injection, schedule: Q01DX009 (ip), vehicle: Klucel (hydroxypropylcellulose) (HPC) 87 % of control | dose: 5.5 mg/kg/injection, schedule: Q01DX009 (ip), vehicle: Klucel (hydroxypropylcellulose) (HPC) 117 % of control | dose: 11.0 mg/kg/injection, schedule: Q01DX009 (ip), vehicle: Klucel (hydroxypropylcellulose) (HPC) 109 % of control | dose: 22.0 mg/kg/injection, schedule: Q01DX009 (ip), vehicle: Klucel (hydroxypropylcellulose) (HPC) 111 % of control

CC1=C(C)C(N(C)C)CS(=O)(=O)O1 (centres undefined)
inactive: [7] 99 % of control | [8] 104 % of control

Cc1cc(=O)n2c([nH]c3ccccc32)c1N=Nc1ccccc1
inactive: [7] 93 % of control | [8] 92 % of control | [9] 100 % of control

O=C(Nc1ccccc1)Oc1ccc(/C=N/S(=O)(=O)c2cccc([N+](=O)[O-])c2)cc1
inactive: [4] 96 % of control | [5] 98 % of control | [6] 118 % of control

COc1ccccc1OCC(=O)c1ccccc1
inactive: dose: 10.0 mg/kg/injection, schedule: Q01DX005 (ip), vehicle: Klucel (hydroxypropylcellulose) (HPC) 102 % of control | dose: 20.0 mg/kg/injection, schedule: Q01DX005 (ip), vehicle: Klucel (hydroxypropylcellulose) (HPC) 96 % of control | dose: 40.0 mg/kg/injection, schedule: Q01DX005 (ip), vehicle: Klucel (hydroxypropylcellulose) (HPC) 100 % of control

N=C(N)c1ccc2oc(CCc3cc4ccc(C(=N)N)cc4[nH]3)cc2c1
inactive: dose: 3.12 mg/kg/injection, schedule: Q04DX003 (ip), vehicle: suspension in saline 100 % of control | dose: 6.25 mg/kg/injection, schedule: Q04DX003 (ip), vehicle: suspension in saline 113 % of control | dose: 12.5 mg/kg/injection, schedule: Q04DX003 (ip), vehicle: suspension in saline 110 % of control

Nc1ccc(S(=O)(=O)Nc2c(N)[nH]c(=S)[nH]c2=O)cc1
inactive: [1] 97 % of control | dose: 15.0 mg/kg/injection, schedule: Q01DX005 (ip), vehicle: saline with Tween-80 115 % of control | [2] 97 % of control | dose: 30.0 mg/kg/injection, schedule: Q01DX005 (ip), vehicle: saline with Tween-80 105 % of control | [10] 92 % of control | [12] 98 % of control | [11] 100 % of control | [13] 100 % of control

CC(=O)[O][Hg][CH2]C1Cc2ccccc2O1 (centres undefined)
inactive: dose: 2.5 mg/kg/injection, schedule: Q01DX009 (ip), vehicle: saline 98 % of control | dose: 5.0 mg/kg/injection, schedule: Q01DX009 (ip), vehicle: saline 99 % of control | dose: 10.0 mg/kg/injection, schedule: Q01DX009 (ip), vehicle: saline 99 % of control | dose: 20.0 mg/kg/injection, schedule: Q01DX009 (ip), vehicle: saline 100 % of control

Cc1ccc(C2(c3ccccc3)OC(=O)c3ccccc32)cc1 (centres undefined)
inactive: dose: 200.0 mg/kg/injection, schedule: Q01DX009 (ip), vehicle: saline sonified 95 % of control

CCC(c1ccc(OCCS(=O)(=O)Oc2ccccc2)cc1)C(CC)c1ccc(OCCS(=O)(=O)Oc2ccccc2)cc1 (centres undefined)
inactive: dose: 100.0 mg/kg/injection, schedule: Q04DX003 (ip), vehicle: suspension in saline 99 % of control | dose: 200.0 mg/kg/injection, schedule: Q04DX003 (ip), vehicle: suspension in saline 98 % of control | dose: 400.0 mg/kg/injection, schedule: Q04DX003 (ip), vehicle: suspension in saline 98 % of control

O=C(Cn1ccc(=O)[nH]c1=O)N1CCOCC1
inactive: dose: 100.0 mg/kg/injection, schedule: Q04DX003 (ip), vehicle: water 100 % of control | dose: 200.0 mg/kg/injection, schedule: Q04DX003 (ip), vehicle: water 100 % of control | dose: 400.0 mg/kg/injection, schedule: Q04DX003 (ip), vehicle: water 100 % of control
